As usually defined, the Kd is the constant that tells how readily two partners part at equilibrium. Higher therefore signals a looser complex.

The assay has as its target T1, eGFP-CD82 (KAI1/CD82) (Homo sapiens, UniProt P27701).
T1 sequence (P27701 1-267): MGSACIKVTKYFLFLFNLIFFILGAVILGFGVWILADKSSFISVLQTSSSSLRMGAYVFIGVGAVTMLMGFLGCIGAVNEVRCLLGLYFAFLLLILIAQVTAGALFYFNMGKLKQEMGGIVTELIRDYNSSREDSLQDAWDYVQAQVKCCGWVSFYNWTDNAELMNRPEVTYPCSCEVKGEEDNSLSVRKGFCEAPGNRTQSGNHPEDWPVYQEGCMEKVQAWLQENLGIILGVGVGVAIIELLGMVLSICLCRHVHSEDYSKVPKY
Briefly: microscale thermophoresis, eGFP fluorescence, cell lysate. Type of assay: binding. (In MST a laser heats a spot of the sample, and binding alters the fluorescence response.)

Molecule `CC(C)CCC[C@@H](C)[C@H]1CC[C@H]2[C@@H]3CC=C4C[C@@H](O)CC[C@]4(C)[C@H]3CC[C@]12C` [cholesterol] had a Kd of 5.89 µM.

The record behind these values is publication PMC6882436 (Journal of Extracellular Vesicles, 2019).
